Test results reported in patent US20110165202A1, “SOLID STATE FORMS OF FOSAMPRENAVIR CALCIUM SALT AND PROCESSES FOR PREPARATION THEREOF” (PLIVA HRVATSKA D.O.O., priority 2010, published 2011).

Experiment: solubility of rod like amorphous particles compared to Form I
Settings: qualitative statement, no method or figures given

Compound: CC(C)CN(C[C@@H](OP(=O)(O)O)[C@H](Cc1ccccc1)NC(=O)O[C@H]1CCOC1)S(=O)(=O)c1ccc(N)cc1 [rod like amorphous particles, calcium (2R, 3S)-1-(4-amino-N-isobutyl-phenylsulfonamido)-4-phenyl-3-(((S)-tetrahydrofuran-3-yloxy)carbonylamino)butan-2-yl phosphate]
- solubility: enhanced solubility compared to Form I
